ChEMBL document CHEMBL1201862, “PubChem BioAssay data set” (2004)
Active and inactive are the calls of the source. Rule as the data show it, for most assays here: actives have a measured EC50 and inactives only a lower limit.

Columns and labels:
[1] = HEK-293T cell viability reduction – luminescence, B-cell screen hits, cytotoxicity control for BCR NF-kB inhibitor project, dose response (AID 489021); format: functional, cell-based;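 also: HEK-293T cells carrying an NF-kB luciferase reporter; cells exposed to compound for about 14 hours before viability readout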
[2] = luciferase reporter signal suppression in cells – H4 neuroglioma cells, luminescence, dose response (AID 1990); format: functional, cell-based
[3] = alpha-synuclein stem-loop luciferase translation blockers – H4 neuroglioma cells, luminescence, confirmation (AID 1988); format: functional, cell-based
[4] = Luminescence Cell-Based Dose Response HTS to Identify Inhibitors of 5'UTR Stem-Loop Driven Prion Protein mRNA Translation in H4 Neuroglioblastoma Cells. [Related pubchem assays: 1827 (Project Summary), 1813 (Primary HTS)]; format: functional
[5] = Luminescence Cell-Based Dose Response HTS to Identify Activators of Luciferase Translation or Activity in H4 […] Cells. [Related pubchem assays: 1829 (Project Summary), 1814 (Primary HTS)]; format: functional
[6] = molecular target: T1, Heat shock factor protein 1 (Mus musculus, UniProt P38532); experiment: decrease of HSF1-responsive luciferase luminescence – cell-based, NIH3T3, dose retest, confirmation (AID 2382); format: functional;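 also: NIH3T3 fibroblasts with HSF1-driven luciferase reporter stressed by proteasome inhibitor MG132; luminescence from HSF1-driven luciferase expression after 8 hours of MG132 stress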
T1 sequence (P38532 whole entry): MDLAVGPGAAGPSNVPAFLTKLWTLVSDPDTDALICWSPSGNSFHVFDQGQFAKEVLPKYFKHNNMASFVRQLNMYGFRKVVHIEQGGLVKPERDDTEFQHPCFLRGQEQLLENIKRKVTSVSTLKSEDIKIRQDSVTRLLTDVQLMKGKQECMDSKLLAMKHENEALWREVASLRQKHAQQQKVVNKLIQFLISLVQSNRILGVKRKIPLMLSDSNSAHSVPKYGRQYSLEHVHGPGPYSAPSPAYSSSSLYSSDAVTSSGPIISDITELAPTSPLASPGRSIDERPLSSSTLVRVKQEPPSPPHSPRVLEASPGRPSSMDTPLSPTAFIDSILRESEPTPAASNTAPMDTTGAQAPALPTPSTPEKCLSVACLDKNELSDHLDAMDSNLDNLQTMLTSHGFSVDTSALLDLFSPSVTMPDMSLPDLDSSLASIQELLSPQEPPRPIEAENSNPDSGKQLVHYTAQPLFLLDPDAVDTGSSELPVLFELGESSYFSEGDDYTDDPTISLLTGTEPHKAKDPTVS

[7] = molecular target: T2, Protein skinhead-1 (Caenorhabditis elegans, UniProt P34707); format: functional
T2 sequence (P34707 whole entry): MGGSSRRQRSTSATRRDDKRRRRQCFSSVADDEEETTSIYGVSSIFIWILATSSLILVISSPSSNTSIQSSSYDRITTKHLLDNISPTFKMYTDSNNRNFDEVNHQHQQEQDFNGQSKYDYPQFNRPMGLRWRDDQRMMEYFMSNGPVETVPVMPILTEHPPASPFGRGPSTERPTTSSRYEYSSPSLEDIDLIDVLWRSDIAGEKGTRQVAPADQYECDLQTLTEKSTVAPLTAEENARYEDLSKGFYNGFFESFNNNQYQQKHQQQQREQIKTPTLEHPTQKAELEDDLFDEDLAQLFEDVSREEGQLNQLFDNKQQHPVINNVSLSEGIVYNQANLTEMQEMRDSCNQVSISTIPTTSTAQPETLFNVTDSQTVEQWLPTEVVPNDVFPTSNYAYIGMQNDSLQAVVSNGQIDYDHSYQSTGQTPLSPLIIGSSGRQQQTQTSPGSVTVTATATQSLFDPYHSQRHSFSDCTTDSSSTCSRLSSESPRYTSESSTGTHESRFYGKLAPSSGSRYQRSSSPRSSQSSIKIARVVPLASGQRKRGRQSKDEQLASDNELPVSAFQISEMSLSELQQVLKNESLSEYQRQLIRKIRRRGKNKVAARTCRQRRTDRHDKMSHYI

[8] = system: H4; experiment: Luminescence Cell-Based Dose Response HTS to Identify Activators of 5'UTR Stem-Loop Driven Prion Protein mRNA Translation in H4 Neuroglioblastoma Cells. [Related pubchem assays: 1829 (Project Summary), 1814 (Primary HTS)]; format: functional; conditions: Homo sapiens
[9] = Luminescence Cell-Based Dose Confirmation HTS to Identify Activators of 5'UTR Stem-Loop Driven Alpha-Synuclein mRNA Translation in H4 Neuroglioblastoma Cells. [Related pubchem assays: 1829 (Project Summary), 1814 (Primary HTS)]; format: functional
[10] = molecular target: T3, Aminopeptidase N (Plasmodium falciparum FcB1/Columbia, UniProt O96935); experiment: malaria alanyl aminopeptidase activity blockers – biochemical, fluorogenic H-Leu-NHMec substrate, 1536-well (AID 1445); parameters: species or system Plasmodium falciparum 3D7, 3D7
T3 sequence (O96935 whole entry): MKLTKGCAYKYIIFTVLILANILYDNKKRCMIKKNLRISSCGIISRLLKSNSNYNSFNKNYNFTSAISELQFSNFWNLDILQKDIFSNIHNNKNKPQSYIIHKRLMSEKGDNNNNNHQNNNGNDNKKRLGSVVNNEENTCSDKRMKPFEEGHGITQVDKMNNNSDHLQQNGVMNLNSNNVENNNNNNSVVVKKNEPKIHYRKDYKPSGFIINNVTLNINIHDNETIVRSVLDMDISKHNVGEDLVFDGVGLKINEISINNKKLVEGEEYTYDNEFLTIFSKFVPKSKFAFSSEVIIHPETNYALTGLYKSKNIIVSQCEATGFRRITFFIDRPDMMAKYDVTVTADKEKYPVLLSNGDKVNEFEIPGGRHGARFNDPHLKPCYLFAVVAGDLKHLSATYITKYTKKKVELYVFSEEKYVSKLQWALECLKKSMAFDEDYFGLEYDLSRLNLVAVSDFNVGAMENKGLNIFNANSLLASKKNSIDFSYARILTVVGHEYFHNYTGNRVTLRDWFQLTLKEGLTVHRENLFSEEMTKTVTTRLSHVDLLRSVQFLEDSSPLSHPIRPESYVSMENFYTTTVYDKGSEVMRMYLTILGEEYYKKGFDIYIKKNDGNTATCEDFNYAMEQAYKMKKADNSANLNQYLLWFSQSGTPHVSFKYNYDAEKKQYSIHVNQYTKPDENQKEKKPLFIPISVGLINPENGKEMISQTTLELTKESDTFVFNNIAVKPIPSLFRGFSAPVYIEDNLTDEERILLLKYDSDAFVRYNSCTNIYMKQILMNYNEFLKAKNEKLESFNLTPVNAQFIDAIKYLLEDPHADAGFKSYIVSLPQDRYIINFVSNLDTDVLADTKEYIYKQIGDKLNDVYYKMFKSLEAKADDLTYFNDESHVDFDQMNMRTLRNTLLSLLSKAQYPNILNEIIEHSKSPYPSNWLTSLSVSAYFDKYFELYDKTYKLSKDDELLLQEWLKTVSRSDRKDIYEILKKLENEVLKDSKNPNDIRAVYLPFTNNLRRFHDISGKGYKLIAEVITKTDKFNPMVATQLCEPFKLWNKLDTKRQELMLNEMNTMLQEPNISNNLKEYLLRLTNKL

[11] = system: HEK293; experiment: inhibition of NOD1-driven NF-kB reporter – cell-based, luminescence, uHTS, primary screen (AID 1578); format: functional; conditions: Homo sapiens
[12] = system: HEK293; experiment: cells; format: functional, cell-based; conditions: Homo sapiens
[13] = system: HEK293; experiment: cells; format: functional, cell-based; conditions: Homo sapiens; remark: listed apart in the source
[14] = system: HEK293; experiment: NOD2 signaling inhibitors in MDP-stimulated cells, cell-based, uHTS, luminescence (AID 2001); format: functional; conditions: Homo sapiens
[15] = system: HEK293; experiment: EBV LMP1 TES2 canonical NF-kB signalling blockers – cell-based, HEK293, luciferase, cherry-pick, dose response (AID 588343); format: functional, Homo sapiens; conditions: hek293
[16] = Trypanosoma cruzi growth suppression in host cells – NIH3T3 host cells, beta-gal luminescence, confirmation (AID 2044); format: functional, cell-based;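 also: intracellular parasites grown in NIH/3T3 mouse fibroblasts as host cells; luminescent beta-galactosidase reporter signal from transgenic T. cruzi replicating inside host cells; inhibitors lower the luminescence signal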
[17] = NIH3T3 cell viability loss – ATP luminescence, mouse fibroblasts, counter-screen, dose response (AID 2010); format: functional, cell-based;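 also: cells exposed to compound for about 90 hours before reading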
[18] = system: HT-1080; experiment: HT1080 cell viability loss – fluorescence readout (AID 620); format: functional, cell-based; conditions: Homo sapiens
[19] = molecular target: Luciferin 4-monooxygenase (Photinus pyralis, UniProt P08659); experiment: Counter Screen for Luciferase-based Assay Positives. [Related pubchem assays: 620, 618, 411 ]
Sequence of Luciferin 4-monooxygenase (P08659 whole entry): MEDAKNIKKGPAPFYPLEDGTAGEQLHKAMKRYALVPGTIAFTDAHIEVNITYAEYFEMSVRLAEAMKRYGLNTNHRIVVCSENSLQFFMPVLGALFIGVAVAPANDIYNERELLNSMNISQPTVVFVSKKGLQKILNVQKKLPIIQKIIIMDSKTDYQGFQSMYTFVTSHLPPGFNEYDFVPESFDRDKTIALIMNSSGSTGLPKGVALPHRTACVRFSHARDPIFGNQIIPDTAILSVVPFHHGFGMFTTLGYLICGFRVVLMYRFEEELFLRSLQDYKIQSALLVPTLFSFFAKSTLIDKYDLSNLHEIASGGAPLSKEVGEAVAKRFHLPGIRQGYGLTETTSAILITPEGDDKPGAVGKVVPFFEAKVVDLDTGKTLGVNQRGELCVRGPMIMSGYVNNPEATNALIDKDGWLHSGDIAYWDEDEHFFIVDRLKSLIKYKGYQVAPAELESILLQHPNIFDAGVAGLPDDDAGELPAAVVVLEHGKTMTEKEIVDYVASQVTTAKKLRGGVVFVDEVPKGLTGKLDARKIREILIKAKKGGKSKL

[20] = molecular target: T4, Histone-lysine N-methyltransferase NSD2 (Homo sapiens, UniProt O96028); format: biochemical
T4 sequence (O96028 whole entry): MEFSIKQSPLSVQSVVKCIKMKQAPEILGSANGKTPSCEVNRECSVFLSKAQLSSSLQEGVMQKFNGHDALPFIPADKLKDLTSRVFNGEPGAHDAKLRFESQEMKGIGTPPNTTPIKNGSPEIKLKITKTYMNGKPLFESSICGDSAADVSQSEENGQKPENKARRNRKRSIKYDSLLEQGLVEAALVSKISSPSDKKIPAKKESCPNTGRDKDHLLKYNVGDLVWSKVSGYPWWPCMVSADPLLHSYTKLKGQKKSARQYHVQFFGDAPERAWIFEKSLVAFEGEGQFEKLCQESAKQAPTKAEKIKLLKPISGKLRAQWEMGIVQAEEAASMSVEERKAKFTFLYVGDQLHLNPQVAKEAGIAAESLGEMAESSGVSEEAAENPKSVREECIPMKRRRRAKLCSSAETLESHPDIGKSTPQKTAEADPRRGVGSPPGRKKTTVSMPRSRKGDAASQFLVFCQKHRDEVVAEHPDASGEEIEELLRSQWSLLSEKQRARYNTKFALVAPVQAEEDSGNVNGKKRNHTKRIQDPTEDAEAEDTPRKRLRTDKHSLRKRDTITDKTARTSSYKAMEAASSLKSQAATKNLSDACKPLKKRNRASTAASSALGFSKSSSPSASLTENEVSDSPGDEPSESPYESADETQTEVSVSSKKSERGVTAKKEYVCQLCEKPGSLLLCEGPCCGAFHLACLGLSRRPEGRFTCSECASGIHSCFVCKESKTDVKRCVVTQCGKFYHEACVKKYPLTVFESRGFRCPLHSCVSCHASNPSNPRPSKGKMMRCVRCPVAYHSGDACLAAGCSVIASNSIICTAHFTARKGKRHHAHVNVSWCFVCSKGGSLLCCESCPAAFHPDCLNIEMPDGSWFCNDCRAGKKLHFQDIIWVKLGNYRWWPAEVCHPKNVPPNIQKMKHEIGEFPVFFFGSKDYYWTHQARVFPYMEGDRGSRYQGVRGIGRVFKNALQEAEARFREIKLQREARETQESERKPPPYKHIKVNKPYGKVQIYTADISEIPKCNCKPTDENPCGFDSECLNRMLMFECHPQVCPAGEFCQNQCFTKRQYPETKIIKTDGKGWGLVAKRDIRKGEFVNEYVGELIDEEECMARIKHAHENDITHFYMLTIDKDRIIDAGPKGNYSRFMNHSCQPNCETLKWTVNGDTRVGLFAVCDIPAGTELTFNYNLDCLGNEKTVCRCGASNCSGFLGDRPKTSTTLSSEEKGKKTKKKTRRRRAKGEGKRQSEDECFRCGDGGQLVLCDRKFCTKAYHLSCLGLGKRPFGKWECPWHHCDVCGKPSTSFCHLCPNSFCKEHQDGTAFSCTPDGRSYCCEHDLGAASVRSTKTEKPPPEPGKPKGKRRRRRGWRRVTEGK

COc1ccccc1/C=C1\SC(=S)N(CCC(=O)Nc2cc(C)on2)C1=O
IC50 [1]: > 80 µM (inactive)
EC50 [2]: 30 µM (active)
EC50 [3]: > 120 µM (not active)
EC50 [4]: 27.8 µM (active)

Cc1ccc2c(c1)c(C)c(C)n2CC(O)Cn1nnc2ccccc21 (stereo not given)
EC50 [5]: 63.4 µM (active)
EC50 [6]: > 195 µM (not active)
IC50 [7]: > 100 µM (inactive)
EC50 [8]: 22.3 µM (active)
EC50 [9]: 20.9 µM (active)

CCc1cc2c(CN3CCN(C)CC3)cc(=O)oc2cc1O
IC50 [10]: 47.7 µM (active)

Cc1cc(C)nc(Sc2ccc([N+](=O)[O-])cc2[N+](=O)[O-])n1
IC50 [1]: > 80 µM (inactive)
EC50 [11]: > 20 µM (inactive)
IC50 [12]: > 20 µM (inactive)
IC50 [13]: 6.2 µM (active)
IC50 [14]: 14.3 µM (inactive)

Cc1c(CCC(=O)O)c(=O)oc2cc3occ(-c4ccccc4)c3cc12
IC50 [10]: 26.7 µM (active)

O=C(COC(=O)c1cc(S(=O)(=O)Nc2ccccc2Cl)ccc1O)Nc1nc2ccccc2s1
IC50 [10]: 44.4 µM (active)

Cc1ccc(C(=O)NC2CCN(CC(=O)Nc3cccc([N+](=O)[O-])c3)CC2)cc1
IC50 [10]: 102 µM (active)

Cc1cccc(-n2nc3c(c2NC(=O)C2CC2)CS(=O)(=O)C3)c1C
EC50 [5]: > 120 µM (not active)
IC50 [7]: > 100 µM (inactive)
EC50 [8]: > 120 µM (not active)
EC50 [9]: > 120 µM (not active)

CCN1CCN(Cc2ccc(NC(=O)c3ccc(C)c(NC(=O)c4ccno4)c3)cc2C(F)(F)F)CC1
EC50 [11]: 7.63 µM (active)
IC50 [12]: > 20 µM (inactive)
IC50 [13]: > 20 µM (inactive)
AC50 [15]: 0.0692 µM (active)
IC50 [14]: 11.9 µM (inactive)

CCCCN1C(=O)NC(=O)/C(=C(/C)NNC(=O)Nc2ccccc2)C1=O
EC50 [5]: 14.3 µM (active)
EC50 [8]: > 120 µM (not active)
EC50 [9]: > 120 µM (not active)

COc1ccc(-c2ccc(C(C)=O)cc2)cc1[C@H]1[C@H]2C=CC[C@@H](C)[C@@H]2C(=O)N1Cc1ccccc1
IC50 [1]: > 80 µM (inactive)
EC50 [16]: 1.15 µM (active)
EC50 [17]: 18.9 µM (active)

CCOc1ccc(-c2cc(CCCC(=O)NCCCOC)no2)cc1
EC50 [18]: > 50 µM (not active)
IC50 [1]: > 80 µM (inactive)
EC50 [2]: 0.841 µM (active)
EC50 [19]: > 100 µM (not active)

CO/C(O)=C1\CSC\C1=N\c1ccccc1NC(=O)c1ccccc1C(=O)O
EC50 [5]: > 120 µM (not active)
EC50 [8]: 119 µM (active)
EC50 [9]: > 120 µM (not active)

O=C(CCCO)N/N=C/c1cc(Br)ccc1O
IC50 [10]: 21.7 µM (active)

CCCCN(CC)CCNC(=O)c1cc2c(-c3ccccc3F)nn(C)c2s1
EC50 [5]: > 120 µM (not active)
AC50 [20]: > 20 µM (inactive)
EC50 [8]: > 120 µM (not active)
EC50 [9]: 8.55 µM (active)
